Data as given in paper PMC4971072, “Chemically Homogenous Compounds with Antagonistic Properties at All α1-Adrenoceptor Subtypes but not β1-Adrenoceptor Attenuate Adrenaline-Induced Arrhythmia in Rats” (Frontiers in Pharmacology, 2016).
Where a name gives a salt, the structure may show the parent alone. Marks after values point to notes of the source that are not given here.

Experiments:
[1] = tested on: blood pressure in normotensive rats; assay: Influence on blood pressure in normotensive rats; format: in vivo, rat; design: Systolic pressure / Diastolic pressure: unit not given beside the values; conditions: for Diastolic pressure / Systolic pressure: anesthetized normotensive rats
Method: The tested compounds were administered i.p. after 15 min of stabilization period. The compounds were administered at the dose 10 mg/kg.

α1A-adrenoceptors = target: T1, α1A-adrenoceptors (Rattus norvegicus, UniProt P43140); assay: Functional bioassay, isolated rat tail artery, noradrenaline contraction; format: biochemical; conditions: noradrenaline as agonist
T1 construct: the middle part of the ventral caudal artery was removed; from tissue; host or cells: isolated rat tail (ventral caudal) artery rings
T1 sequence (P43140 1-466): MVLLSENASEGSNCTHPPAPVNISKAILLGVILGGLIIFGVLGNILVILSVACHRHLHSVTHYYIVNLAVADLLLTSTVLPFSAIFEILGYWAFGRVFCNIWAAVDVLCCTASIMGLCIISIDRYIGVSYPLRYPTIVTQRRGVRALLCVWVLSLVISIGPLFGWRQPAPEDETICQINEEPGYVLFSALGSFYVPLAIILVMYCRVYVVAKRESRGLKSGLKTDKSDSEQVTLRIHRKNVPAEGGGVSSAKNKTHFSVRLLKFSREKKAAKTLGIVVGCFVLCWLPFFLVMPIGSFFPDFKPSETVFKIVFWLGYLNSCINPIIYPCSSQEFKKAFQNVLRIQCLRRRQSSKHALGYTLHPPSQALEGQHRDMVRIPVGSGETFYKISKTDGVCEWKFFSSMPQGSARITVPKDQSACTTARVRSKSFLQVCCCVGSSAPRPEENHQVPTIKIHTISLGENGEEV
Method: The isolated artery, cut into ~4 mm long rings, was then horizontally put up between two stainless steel hooks (diameter 0.15 mm). One hook was fastened to the bottom of the chamber and the other to an isometric FDT10-A force displacement transducer (DMT Model 750TOBS, Denmark), linked with Powerlab 4/26 analyzer (ADInstruments), and processed by LabChart 7 software. […] The initial optimal tissues tension was set at 0.75 g. Chloroethylclonidine (3 μM) as the preferential α1B-adrenoreceptor alkylating agent was used during incubation and after 30 min it was completely washed off. Through 100 min of equilibration tissues were stimulated with noradrenaline (1 μM) four times with washing out until the contractile response become constant. Two cumulative concentration-response curves to noradrenaline, at an interval of 60 min, were established on each arterial ring both in the presence and absence of antagonist. The incubation with antagonists went on for 30 min. The experiments were carried out in the constant presence of yohimbine (0.1 μM) and propranolol (1 μM) to block α2- and β-adrenoceptors, respectively in order to minimize the involvement of these adrenoceptors in the response to noradrenaline.
Data are means ± S.E.M. of at least 4 separate experiments. To establish Hill slopes for the agonist concentration–response curves and calculate EC50 values, curves were fitted to all the data by non-linear regression. The EC50 value in the presence and absence of antagonists was used to ascertain the concentration ratio (CR). Schild analysis was performed.

β1-adrenergic receptor = target: T2, β1-adrenergic receptor (Rattus norvegicus, UniProt P18090); assay: β1-adrenoceptor radioligand binding assay ([3H]-CGP-12177, rat cerebral cortex); conditions: read-out: Adrenergic receptors Ki β1
T2 construct: The brains were homogenized in 20 volumes of an ice-cold 50 mM Tris-HCl buffer; from tissue; host or cells: rat cerebral cortex membranes
T2 sequence (P18090 whole entry): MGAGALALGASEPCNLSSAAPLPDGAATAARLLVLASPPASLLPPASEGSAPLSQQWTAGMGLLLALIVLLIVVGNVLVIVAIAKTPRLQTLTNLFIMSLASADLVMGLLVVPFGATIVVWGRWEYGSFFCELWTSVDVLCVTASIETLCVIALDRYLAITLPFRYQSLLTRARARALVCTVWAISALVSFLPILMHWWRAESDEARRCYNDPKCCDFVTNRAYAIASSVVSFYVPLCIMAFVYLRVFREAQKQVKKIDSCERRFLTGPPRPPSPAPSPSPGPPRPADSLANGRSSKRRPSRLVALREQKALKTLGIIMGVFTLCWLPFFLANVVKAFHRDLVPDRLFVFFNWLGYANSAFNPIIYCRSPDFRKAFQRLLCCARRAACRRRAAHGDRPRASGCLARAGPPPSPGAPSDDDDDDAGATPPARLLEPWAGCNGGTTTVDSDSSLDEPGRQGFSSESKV
Method: The α1- and β1-adrenoceptor radioligand binding assay was performed on rat cerebral cortex. […] The cell pellet was resuspended in the Tris–HCl buffer and centrifuged again. Radioligand binding assays were performed in plates (MultiScreen/Millipore). […] The incubation was terminated by rapid filtration through glass fiber filters (Whatman GF/C) using a vacuum manifold (Millipore). The filters were then washed twice with the assay buffer and placed in scintillation vials with a liquid scintillation cocktail. […] All the assays were made in duplicate and the inhibitory constants (Ki) were estimated.
LO–labeled ligand concentration, KD–dissociation constant of labeled ligand

normal ECG in rats = assay: The effect on normal electrocardiogram in rats; format: in vivo, rat; conditions: anesthetized rats
Method: The experiment was carried out to exclude the influence of tested compounds on normal ECG. […] The influence on QRS complex, PQ interval, heart rate (RR), and QTc interval was determined.

[2] = lowest hypotensive dose i.p., 5 min
[3] = lowest hypotensive dose i.p., 10 min
[4] = lowest hypotensive dose i.p., 20 min
[5] = lowest hypotensive dose i.p., 30 min
[6] = lowest hypotensive dose i.p., 40 min
[7] = lowest hypotensive dose i.p., 50 min
[8] = lowest hypotensive dose i.p., 60 min
[9] = lowest hypotensive dose i.p., Control (before administration)
[10] = normotensive rats, lowest hypotensive dose i.p., period of significant effect
[11] = i.p. at ED84, 0 min (initial values)

Compound: COc1ccccc1N1CCN(CCCOc2c(C)cc(C)cc2C)CC1 [HBK-18, 1N-[3-(2,4,6-trimethylphenoxy)propyl]-4N-(2-methoxyphenyl)piperazine hydrochloride]
- Diastolic pressure [1, 2]: 90.7 ± 7.1
- Systolic pressure [1, 2]: 117.7 ± 9.1
- Diastolic pressure [1, 3]: 85.5 ± 7.5
- Systolic pressure [1, 3]: 112.7 ± 7.7
- Diastolic pressure [1, 4]: 79.5 ± 7.8^a
- Systolic pressure [1, 4]: 96.5 ± 8.9^b
- Diastolic pressure [1, 5]: 78.3 ± 7.2^a
- Systolic pressure [1, 5]: 93.8 ± 8.7^c
- Diastolic pressure [1, 6]: 78.8 ± 7.0^b
- Systolic pressure [1, 6]: 91.8 ± 10.0^b
- Diastolic pressure [1, 7]: 78.7 ± 5.6^c
- Systolic pressure [1, 7]: 90.7 ± 8.6^b
- Diastolic pressure [1, 8]: 77.5 ± 6.0^b
- Systolic pressure [1, 8]: 90.2 ± 9.2^a
- Diastolic pressure [1, 9]: 94.3 ± 6.4
- Systolic pressure [1, 9]: 125.7 ± 8.2
- lowest hypotensive dose ([1]; normotensive rats, lowest dose significantly lowering systolic and diastolic blood pressure): 0.01 mg/kg
- reduction of diastolic blood pressure [1, 10]: 16−18%
- reduction of systolic blood pressure [1, 10]: 23−28%
- Schild slope ± S.E.M., α1A (α1A-adrenoceptors): 1.10 ± 0.06
- Kb (α1A-adrenoceptors; read-out: pA2 ± S.E.M., α1A (converted)): 3.24 nM
- Ki (β1-adrenergic receptor): > 10000 nM
- influence on ECG parameters (PQ interval, QRS complex, QTc interval) (normal ECG in rats; i.p. at ED84): did not affect PQ interval, QRS complex or QTc interval
- reduction of heart rate (normal ECG in rats; i.p. at ED84, over the period of significant effect vs. initial values): 13−23%
- Beats/min (ECG) (normal ECG in rats; [11]): 328.0 ± 7.4 Beats/min
- PQ (ECG) (normal ECG in rats; [11]): 61.3 ± 4.6 ms
- QRS (ECG) (normal ECG in rats; [11]): 28.1 ± 3.1 ms
- QT (ECG) (normal ECG in rats; [11]): 73.9 ± 6.2 ms
- QTc (ECG, Bazett) (normal ECG in rats; [11]): 172.4 ± 13.5 ms
- Beats/min (ECG) (normal ECG in rats; i.p. at ED84, 5 min): 306.9 ± 9.0 Beats/min
- PQ (ECG) (normal ECG in rats; i.p. at ED84, 5 min): 61.5 ± 6.3 ms
- QRS (ECG) (normal ECG in rats; i.p. at ED84, 5 min): 30.4 ± 3.2 ms
- QT (ECG) (normal ECG in rats; i.p. at ED84, 5 min): 77.0 ± 7.0 ms
- QTc (ECG, Bazett) (normal ECG in rats; i.p. at ED84, 5 min): 174.2 ± 16.3 ms
- Beats/min (ECG) (normal ECG in rats; i.p. at ED84, 10 min): 298.7 ± 8.9 Beats/min
- PQ (ECG) (normal ECG in rats; i.p. at ED84, 10 min): 57.4 ± 4.2 ms
- QRS (ECG) (normal ECG in rats; i.p. at ED84, 10 min): 30.8 ± 3.6 ms
- QT (ECG) (normal ECG in rats; i.p. at ED84, 10 min): 77.7 ± 4.9 ms
- QTc (ECG, Bazett) (normal ECG in rats; i.p. at ED84, 10 min): 173.4 ± 11.7 ms
- Beats/min (ECG) (normal ECG in rats; i.p. at ED84, 15 min): 284.7 ± 7.6^a Beats/min
- PQ (ECG) (normal ECG in rats; i.p. at ED84, 15 min): 55.8 ± 1.6 ms
- QRS (ECG) (normal ECG in rats; i.p. at ED84, 15 min): 27.0 ± 2.9 ms
- QT (ECG) (normal ECG in rats; i.p. at ED84, 15 min): 76.1 ± 5.8 ms
- QTc (ECG, Bazett) (normal ECG in rats; i.p. at ED84, 15 min): 166.4 ± 14.5 ms
- Beats/min (ECG) (normal ECG in rats; i.p. at ED84, 20 min): 273.9 ± 8.0^b Beats/min
- PQ (ECG) (normal ECG in rats; i.p. at ED84, 20 min): 51.9 ± 3.8 ms
- QRS (ECG) (normal ECG in rats; i.p. at ED84, 20 min): 29.1 ± 2.7 ms
- QT (ECG) (normal ECG in rats; i.p. at ED84, 20 min): 77.9 ± 4.2 ms
- QTc (ECG, Bazett) (normal ECG in rats; i.p. at ED84, 20 min): 166.9 ± 11.1 ms
- Beats/min (ECG) (normal ECG in rats; i.p. at ED84, 30 min): 267.4 ± 17.5^c Beats/min
- PQ (ECG) (normal ECG in rats; i.p. at ED84, 30 min): 56.9 ± 3.5 ms
- QRS (ECG) (normal ECG in rats; i.p. at ED84, 30 min): 28.5 ± 2.8 ms
- QT (ECG) (normal ECG in rats; i.p. at ED84, 30 min): 75.3 ± 3.2 ms
- QTc (ECG, Bazett) (normal ECG in rats; i.p. at ED84, 30 min): 159.0 ± 9.7 ms
- Beats/min (ECG) (normal ECG in rats; i.p. at ED84, 40 min): 260.3 ± 22.8^c Beats/min
- PQ (ECG) (normal ECG in rats; i.p. at ED84, 40 min): 57.4 ± 3.1 ms
- QRS (ECG) (normal ECG in rats; i.p. at ED84, 40 min): 28.6 ± 2.8 ms
- QT (ECG) (normal ECG in rats; i.p. at ED84, 40 min): 76.9 ± 4.9 ms
- QTc (ECG, Bazett) (normal ECG in rats; i.p. at ED84, 40 min): 160.4 ± 14.4 ms
- Beats/min (ECG) (normal ECG in rats; i.p. at ED84, 50 min): 258.9 ± 25.4^c Beats/min
- PQ (ECG) (normal ECG in rats; i.p. at ED84, 50 min): 59.0 ± 3.8 ms
- QRS (ECG) (normal ECG in rats; i.p. at ED84, 50 min): 27.6 ± 3.0 ms
- QT (ECG) (normal ECG in rats; i.p. at ED84, 50 min): 76.0 ± 2.9 ms
- QTc (ECG, Bazett) (normal ECG in rats; i.p. at ED84, 50 min): 157.2 ± 9.9 ms
- Beats/min (ECG) (normal ECG in rats; i.p. at ED84, 60 min): 252.3 ± 25.1^c Beats/min
- PQ (ECG) (normal ECG in rats; i.p. at ED84, 60 min): 59.6 ± 4.7 ms
- QRS (ECG) (normal ECG in rats; i.p. at ED84, 60 min): 30.9 ± 3.8 ms
- QT (ECG) (normal ECG in rats; i.p. at ED84, 60 min): 76.7 ± 3.5 ms
- QTc (ECG, Bazett) (normal ECG in rats; i.p. at ED84, 60 min): 157.1 ± 12.0 ms
